Reference: article PMC12040169 (PLOS Biology, 2025)

Legend:
[1] = system: T1, CTL2-GFP (C. trachomatis L2/434/Bu, GFP-expressing); test: microbe, parasite or virus in culture; parameters: Intracellular C. trachomatis growth in HeLa cells, bulk GFP fluorescence relative to DMSO; conditions: Chlamydia trachomatis, HeLa, 28.5 h; bulk GFP, mean of 2; read-out: % of control remaining
T1 construct: L2/434/Bu, GFP-expressing
Procedure: MICs were calculated as described above.

in vitro [2] = conditions: human, hela cells, % viability
[3] = system: T2, C. trachomatis L2/434/Bu expressing GFP (CTL2-GFP); test: microbe, parasite or virus in culture; parameters: C. trachomatis total inclusion area by high-content imaging, normalised to DMSO; conditions: Chlamydia trachomatis, HeLa, 28.5 h; total inclusion area; read-out: % of control remaining
T2 construct: L2/434/Bu GFP intracellular growth in HeLa cells
Procedure, shortened: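 First, bulk GFP and resorufin signals were measured in compound-treated infected cultures. Cells were next fixed and stained with Hoechst. Finally, high-content imaging quantified chlamydial inclusions (area, number) and host nuclei, and MICs were calculated.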

in vitro [4] = test: in vitro; parameters: Viability of infected HeLa host cells, resazurin conversion, bulk resorufin fluorescence relative to DMSO; conditions: human, hela cells; bulk resorufin, mean of 2

| Compound | activity at 1 µM [1] [%] | activity at 5 µM [1] [%] | activity at 10 µM [1] [%] | viability at 28.5 h, 10 µM (in vitro [2]) [%] | activity at 1 µM [3] [%] | activity at 5 µM [3] [%] | activity at 10 µM [3] [%] | viability at 28.5 h, 1 µM (in vitro [4]) [%] | viability at 28.5 h, 5 µM (in vitro [4]) [%] | viability at 28.5 h, 10 µM (in vitro [4]) [%] |
| --- | --- | --- | --- | --- | --- | --- | --- | --- | --- | --- |
| CCc1cc(Br)ccc1S(=O)(=O)NC(CC)COC (centres unmarked) [CBK045265] | 138 | 114 | 140 | 88.1 | 117 | 106 | 97.7 | 100 | 99 | 96.5 |
| c1ccc(-c2nnc3ccccc3c2N2CCNCC2)cc1 [CBK066888] | 125 | 82.9 | 27.1 | 107 | 97.7 | 46 | 0.17 | 114 | 106 | 105 |
| OC(COc1ccc(Br)cc1)CN1CCCN(c2nc3ccc(Cl)cc3s2)CC1 (centres unmarked) [CBK074643] | 137 | 114 | 43.8 | 93.5 | 121 | 82.4 | 11.3 | 86.1 | 88.1 | 88 |
| O=C(Nc1ccccc1C(=O)Nc1nnc(C(F)(F)F)s1)c1ccccc1Cl [CBK076900] | 130 | 90.8 | 45.1 | 76.9 | 113 | 64.7 | 63.4 | 94.7 | 97 | 84.6 |
| N#CCCCN1CCC(Oc2cncc(OCc3ccc(Cl)c(Cl)c3)n2)C1 (centres unmarked) [CBK084436] | 127 | 81.2 | 52.7 | 96.1 | 118 | 74.4 | 32.6 | 95.4 | 102 | 99.4 |
| COc1ccc(N2CCN(C(=O)c3ccc([N+](=O)[O-])o3)CC2)cc1 [CBK091410] | 106 | 55.2 | 16 | 105 | 128 | 64.3 | 20.7 | 106 | 110 | 125 |
| Nc1ncc(-c2ccc(C(=O)N3CCOCC3)cc2)cc1C(=O)NCc1ccc(Cl)c(Cl)c1 [CBK158570] | 97.9 | 89.9 | 72 | 109 | 87.8 | 108 | 65.8 | 91.9 | 93.3 | 93.8 |
| CCc1nnc(NS(=O)(=O)c2ccc(NC(=O)COc3ccc(Cl)cc3Cl)cc2)s1 [CBK200050] | 112 | 48.5 | 22.1 | 108 | 99.2 | 67 | 37.8 | 104 | 96.7 | 98.4 |
| NC(=O)c1[nH]nc(C2OC(CO)C(O)C2O)c1O (centres unmarked) [CBK201236] | 15.5 | 10.1 | 9.69 | 95.1 | 23.4 | 16 | 13.6 | 92.8 | 92.1 | 93.8 |
| Nc1nc(F)nc2c1ncn2[C@H]1C[C@@H](O)[C@@H](CO)O1 [CBK201337] | 52.9 | 11.5 | 14.4 | 77.6 | 50.4 | 4.65 | 1.29 | 93.5 | 79.2 | 72.6 |
| Nc1ccc(C(=O)Nc2ccc(-c3nc4ccc(NC(=O)c5ccc(N)cc5)cc4[nH]3)cc2)cc1 [CBK261147] | 149 | 133 | 160 | 109 | 101 | 76.7 | 91.9 | 88.3 | 93.2 | 103 |
| C/C(=N\Nc1nnc2c(n1)[nH]c1ccccc12)c1ccccn1 [CBK262054] | 18 | 12.2 | 10.5 | 94.5 | 18.7 | 2.45 | 1.6 | 87.3 | 69.7 | 70.2 |
| CCc1nnc(NS(=O)(=O)c2ccc(N/C=C3\C(=O)N(c4ccc(C)cc4)N=C3C)cc2)s1 [CBK262395] | 87 | 17.9 | 18.6 | 100 | 116 | 36.9 | 35 | 96 | 101 | 91.7 |
| O=[N+]([O-])c1ccc2[nH]c3c(c2c1)CCCC3NC1CCN(CCc2ccccc2)CC1 (centres unmarked) [CBK262874] | 58.5 | 25.9 | 16.1 | 77.1 | 60.6 | 15.1 | 3.02 | 91.5 | 84.8 | 76.1 |
| O=C(N/N=C/c1ccc(Sc2cccc3cccnc23)o1)c1cccc(F)c1 [CBK263263] | 12 | 3.14 | 0 | 87.9 | 21 | 4.03 | 0.368 | 101 | 99.9 | 108 |
| Cc1cc(NS(=O)(=O)c2ccc(Nc3nc(-c4ccccn4)cs3)cc2)no1 [CBK263302B] | 105 | 88.6 | 49.5 | 93.1 | 76.5 | 93.3 | 56.4 | 90.8 | 93.6 | 99.8 |
| Cc1noc(NS(=O)(=O)c2ccc(NC(=O)COc3ccccc3Br)cc2)c1C [CBK263918] | 97.7 | 57.6 | 25.5 | 89.4 | 91.6 | 88.5 | 31 | 96.5 | 96.5 | 95.3 |
| Cc1c(OCc2cnn(-c3ccccc3)c2)ccc(-c2n[nH]c(C(F)(F)F)c2-c2ccccc2)c1O [CBK264962] | 89.8 | 73.9 | 49.7 | 104 | 82.3 | 57.5 | 20.9 | 109 | 90.9 | 97 |
| CC(C)(CNS(=O)(=O)c1ccc(F)cc1)CNS(=O)(=O)c1ccc(F)cc1 [CBK265455] | 79.4 | 13.3 | 0 | 111 | 80.8 | 21.4 | 1.74 | 112 | 111 | 116 |
| Cc1ccc2nsnc2c1S(=O)(=O)Nc1cccc2cccnc12 [CBK267051] | 108 | 79.7 | 47.8 | 46.9 | 87.7 | 88.5 | 34.4 | 76.3 | 60.6 | 60.9 |
| O=C(CSCc1c(F)cccc1Cl)Nc1ccc(S(=O)(=O)N2CCCCC2)cc1 [CBK268034] | 82.4 | 35.6 | 27.1 | 90.4 | 90.3 | 35.6 | 13.2 | 91.9 | 104 | 101 |
| O=C(Nc1ccc(S(=O)(=O)Nc2ncccn2)cc1)c1ccc2c(c1)OCCO2 [CBK268132] | 135 | 76.4 | 55.4 | 96.7 | 89.9 | 82.3 | 42.6 | 84 | 94.2 | 95.2 |
| Cc1cc(NS(=O)(=O)c2ccc(NC(=S)NC(=O)C(C)(C)C)cc2)no1 [CBK268877] | 123 | 78.8 | 33.7 | 95.7 | 74.7 | 64 | 35.4 | 93.4 | 96.5 | 99.1 |
